Assay results from patent US8394785B2, “Methods for the treatment and amelioration of urticaria” (Jado Technologies GmbH, priority 2005, dated 2013).
“Also recorded” adds a separate entry of the source. Structures can show the parent of a compound that is named as a salt. Where two headings read alike, the source gives them in different places.

Columns and labels:
[1] = test system: membrane integrity (lactate dehydrogenase release); experiment: Cytotoxicity test / membrane integrity assay (Promega Cytotox-One), lactate dehydrogenase release; details: for CD50: concentration at which 50% of maximal lactate dehydrogenase release is reached; for cytotoxicity (in words): Table 2
[2] = test system: Rat basophilic leukemia (RBL-2H3) cells; experiment: Mast cell degranulation assay (β-hexosaminidase release); type: cell-based; details: for IC50: 1 h, concentration at which 50% of maximal inhibition is reached, RBL-2H3, 60 min incubation with compound, DNP antigen challenge, read-out: ID50 (the source's name); for activity in the mast cell degranulation assay (in words): FIGS. 1 to 8
Method: The assay measures release of β-hexosaminidase as a marker of release of various preformed pharmacological agents in response to clustering of the high affinity IgE receptor (FcεRI) by means of multivalent antigen-IgE complexes. Rat basophilic leukemia (RBL-2H3) cells, a commonly used model of mast cell degranulation, are sensitized with anti-DNP specific IgE and challenged with multivalent DNP-BSA. The release of β-hexosaminidase into the supernatant is measured by enzymatic conversion of the fluorogenic substrate 4-methylumbelliferyl-N-acetyl-β-D-glucosaminide to N-acetyl-β-D-glucosamine and highly fluorescent methylumbelliferone and quantified by fluorescence detection in a Tecan Safire™ plate reader.
RBL-2H3 cells obtained from the German Collection of Microorganisms and Cell Cultures (Braunschweig, Germany) were maintained in 70% Minimum Essential Medium with Earle's Salts/20% RPMI 1640/10% heat-inactivated fetal calf serum) supplemented with 2 mM GlutaMAX™-I in 5% CO2 at 37° C. and routinely checked to be free of mycoplasma contamination. Cells grown in 175 cm^2 flasks were split with 0.05% Trypsin/EDTA and resuspended in 20 ml fresh medium. One hundred and 50 μl cell suspension were plated per well into 24 well cluster plates (Costar, Schiphol-Rijk, Netherlands) and cells were used one or two days after plating, respectively.
Two to 24 hours before incubation with test compounds the medium was removed and cells were sensitized with 0.4 μg/ml anti-DNP IgE in fresh medium. Following sensitization, cells were washed once with warm TyB and incubated for 60 min with test compound at a maximum of 100 μM or the highest non-toxic concentration (total vehicle concentration adjusted to 1%) or 1% vehicle in TyB at 37° C. DNP-HSA (0.1 μg/ml final concentration) or buffer alone was added and cells incubated for 15 min at 37° C. Plates were centrifuged at 4° C. for 5 min at 250×g and immediately transferred to ice. Supernatants were collected and the cells lysed with lysis buffer. Hexosaminidase activity in supernatants and lysates was measured by incubating 25 μl aliquots with 100 μl MUG substrate solution in a 96-well plate at 37° C. for 30 min. The reaction was terminated by addition of 150 μl stop solution. Fluorescence was measured in a Tecan Safire™ plate reader at 365 nm excitation and 440 nm emission settings.
Each compound is tested in duplicates in at least three independent experiments. β-hexosaminidase release is calculated after subtraction of unspecific release (release without addition of antigen) using the formula: % degranulation=100×RFU supernatant/RFU lysate
Inhibition of β-hexosaminidase release with respect to control is calculated as
follows: % inhibition=100×(1−(RFU supernatant of compound/RFU supernatant of control))

[3] = test system: membrane integrity (lactate dehydrogenase release)
[4] = Rattus norvegicus, RBL-2H3, read-out: maximum inhibition (concentration used)
[5] = Rattus norvegicus, RBL-2H3, at or 25 μM, read-out: inhibition of degranulation
[6] = Rattus norvegicus, RBL-2H3, 25 μM, read-out: maximum inhibition (concentration used)

Row | IC50 ([2]; Rattus norvegicus) [µM] | Compound | CD50 [1] [µM] | inhibition at 10 µM [2, 4] [%] | inhibition at 25 µM [2, 5] [%] | inhibition at 25 µM [2, 6] [%] | also measured
1 | 2.9 | CCCCCCCCCCCCCCCCOC[C@H](COP(=O)([O-])OCC[N+](C)(C)C)OC [Compound 1, 2-O-methyl PAF C-16] | 48.2 | 89 | > 75 |  | 
2 | 3 | CCCCCCCCCCCCCCCCOC[C@H](COP(=O)([O-])OCC[N+](C)(C)C)OCC [Compound 2, 2-O-ethyl PAF C-16] | 57.2 | 86 | > 75 |  | 
3 | 4.8 | CCCCCCCCCCCCCCCCSCC(COC)COP(=O)([O-])OCC[N+](C)(C)C (centres unmarked) [Compound 4, 1-hexadecylmercapto-2-methoxymethyl-3-propyl phosphoric acid monocholine ester, reference compound] |  |  | > 75 | 84 | 
4 | 6.2 | CCCCCCCCCCCCCCCCCCOCC(COP(=O)([O-])OCC[N+](C)(C)C)OC (centres unmarked) [Compound 5, edelfosine, reference compound] | 59.0 |  | > 75 | 79 | cytotoxicity (in words) [1]: higher cytotoxicity
5 | 11 | C/C=C/C(=O)O[C@H](COCCCCCCCCCCCCCCCC)COP(=O)([O-])OCCCCCC[N+](C)(C)C [Compound 7, butenoyl PAF C-16] | 79.6 |  |  | 69 | 
6 | 13.7 | CCCCCCCCCCCCCCCCOC[C@H](COP(=O)([O-])OCC[N+]1(C)CCCC1)OC(C)=O [Compound 8, pyrrolidino PAF C-16] | 50.2 |  |  | 53 | 
7 | 2.8 | CCCCCCCCCCCCCCCCCCOP(=O)([O-])OC1CC[N+](C)(C)CC1 [Compound 9, octadecyl-(N,N-dimethyl-piperidinio-4-yl)-phosphate, reference compound] | 76.7 | 85 | > 75 |  | cytotoxicity (in words) [1]: less cytotoxic; also recorded: low toxicity
8 |  | CCCCCCCCCCCCCCCCOC[C@H](COP(=O)([O-])OCC[N+](C)(C)C)SC(C)=O [Compound 12, 2-thio PAF C-16] | 86.5 |  |  | 41 | 
9 |  | CCCCCCCCCCCCCCCCOC[C@@H](O)COP(=O)([O-])OCC[N+](C)(C)C [Compound 13, 1-hexadecyl-sn-glycero-3-phosphocholine 3-sn-lysophosphatidylcholine] | 58.8 |  |  | 41 | 
10 |  | CCCCCCCCCCCCCCCCOC[C@H](COP(=O)([O-])OCC[N+](C)(C)C)OC(C)=O [Compound 14, 1-hexadecyl-2-acetyl-sn-glycero-3-phosphocholine] |  |  |  | 42 | CD50 [3]: 57.7 µM
11 |  | CCCCCCCCCCCCCCCCOC[C@H](COP(=O)([O-])OCCCCCC[N+](C)(C)C)OC(C)=O [Compound 16, 1-O-hexadecyl-2-acetyl-sn-glycero-3-phospho-(N,N,N-trimethyl)hexanolamine] | 51.3 |  |  | 45 | 
12 | 7.1 | CCCCCCCCCCCCOP(=O)([O-])OCC[N+](C)(C)C [Compound 17, Dodecylphosphocholine] | >100 |  | > 75 | 76 | 
13 |  | CCCCCCCCCCCCCCCC(=O)OC[C@H](O)COP(=O)([O-])OCC[N+](C)(C)C [Compound 20, 1-palmitoyl-2-hydroxy-sn-glycero-3-phosphocholine] |  |  |  | 26 | CD50 [3]: 70.3 µM
14 |  | CCCCCCCCCCCCCCCCOC[C@H](CO)OC [Compound 22, 1-O-hexa-decyl-2-O-methyl-sn-glycerol, reference compound] | >100 |  |  |  | activity in the mast cell degranulation assay (in words) [2]: poor results; inhibition at 100 µM ([2]; Rattus norvegicus, RBL-2H3, 100 μM, read-out: maximum inhibition (concentration used)): 15%
15 | 2.6 | CCCCCCCCCCCCCCCCCCOP(=O)([O-])OCC[N+](C)(C)C [Compound 23, octadecylphosphocholine (C18:0)] | >50 | 82 | > 75 |  | 
16 | 2.9 | CCCCCCCC/C=C/CCCCCCCCOP(=O)([O-])OCC[N+](C)(C)C [Compound 24, 1-elaidylphosphocholine (C18:1, trans)] | 59.6 | 92 | > 75 |  | 
17 | 3.1 | CCCCCCCCCCCCCCCCOCCCOP(=O)([O-])OCC[N+](C)(C)C [Compound 26, 1-O-hexadecyl-propanediol-3-phosphocholine] |  | 90 | > 75 |  | 
18 | 8 | CCCCCCCCCCCCCCCCCCOCC(C)(C)COP(=O)([O-])OCC[N+](C)(C)C [Compound 27, 1-O-octadecyl-(2,2-dimethyl)-propanediol-3-phosphocholine] |  |  | > 75 | 85 | 
19 | 13.1 | CCCCCCCCCCCCCCCCOC[C@H](COP(=O)([O-])OCC[N+](C)(C)C)OC(=O)CC [Compound 28, 1-O-hexadecyl-2-propionyl-sn-glycero-3-phosphocholine] |  |  |  | 64 | 
20 |  | O=C(O)c1cc(=O)c2c(OCC(O)COc3cccc4oc(C(=O)O)cc(=O)c34)cccc2o1 [cromogylcic acid, reference compound] |  |  |  |  | activity in the mast cell degranulation assay (in words) [2]: no or only low activity
21 |  | CN1CCC(=C2c3ccccc3CC(=O)c3sccc32)CC1 [ketotifen fumarate, reference compound] |  |  |  |  | activity in the mast cell degranulation assay (in words) [2]: no or only low activity

Row | Compound | IC50 ([2]; Rattus norvegicus) [µM] | CD50 [1] [µM] | inhibition at 10 µM [2, 4] [%] | inhibition at 25 µM [2, 5] [%] | inhibition at 25 µM [2, 6] [%] | also measured
22 | CCCCCCCCCCCCCCCCOCC(COP(=O)([O-])OCC[N+](C)(C)C)OC(C)=O (centres unmarked) [Compound 25, 3-O-hexadecyl-2-acetyl-sn-glycero-1-posphocholine] | 3 |  | 82 | > 75 |  | 
